Results on one compound are retold here after ChEMBL document CHEMBL5726007, “Therapeutic compounds and uses thereof” (2018).

For the test, the target named is T1, Bromodomain-containing protein 9 (Homo sapiens, UniProt Q9H8M2).
T1 sequence (Q9H8M2 whole entry): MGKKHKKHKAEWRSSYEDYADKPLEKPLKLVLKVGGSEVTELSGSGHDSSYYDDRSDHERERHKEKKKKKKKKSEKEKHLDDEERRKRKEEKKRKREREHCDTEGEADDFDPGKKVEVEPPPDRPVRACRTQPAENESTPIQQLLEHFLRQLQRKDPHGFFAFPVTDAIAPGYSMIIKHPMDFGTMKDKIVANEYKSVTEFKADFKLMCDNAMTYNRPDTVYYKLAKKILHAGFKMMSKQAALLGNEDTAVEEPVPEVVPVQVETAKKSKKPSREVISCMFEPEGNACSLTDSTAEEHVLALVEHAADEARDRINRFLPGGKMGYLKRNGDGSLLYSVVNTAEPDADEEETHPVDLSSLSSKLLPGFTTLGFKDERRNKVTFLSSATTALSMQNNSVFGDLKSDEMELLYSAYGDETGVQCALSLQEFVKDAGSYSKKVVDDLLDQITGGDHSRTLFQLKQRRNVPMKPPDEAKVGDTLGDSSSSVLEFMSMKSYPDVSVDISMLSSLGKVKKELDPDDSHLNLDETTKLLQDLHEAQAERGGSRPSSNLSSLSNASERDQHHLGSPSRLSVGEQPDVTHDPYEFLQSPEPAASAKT
The test can be described thus: After 20 minutes incubation at room temperature AlphaLisa Streptavidin Acceptor Beads (Perkin-AL125C) and AlphaLisa Nickel donor beads (Perkin AS 10 ID) were added to a final concentration of 15 ug/mL each.

As usually defined, the IC50 is the midpoint of a concentration-inhibition curve. A lower IC50 goes with higher potency. Compound `CC(C)n1cc(-c2ccc(C(C)(C)O)cc2)c2cc[nH]c2c1=O` returned an IC50 of 4.1 µM.
